Experimental data published in patent US9615577B2, “Herbicidally active cyclic dione compounds, or derivatives therefor, substituted by a phenyl which has an alkynyl-containing substituent” (Syngenta Limited, priority 2012, dated 2017).

Key:
Type in all cases: in vivo
[1] = system: Brachiaria plantaginea (BRAPL); test: Test 1B glasshouse assay for herbicidal activity, post-emergence; conditions: Urochloa plantaginea; for pest or weed control at 30 g/ha: 30 g/ha application rate; for pest or weed control at 125 g/ha: 125 g/ha application rate
In short: (§1)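 Warm-climate glasshouse, 24/18° C., 16 h light, 65% humidity. Spray: IF50 (50 g/liter stock) in 0.2% v/v X-77; pre-emergence 1 day post-sowing, post-emergence ~12 days (10-13). Visual phytotoxicity 0-100%, at 15 DAA post, 20 DAA pre.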

[2] = system: Beta vulgaris (BEAVA, sugar beet); test: as above; conditions: 360 h; for plant injury at 30 g/ha: 30 g/ha application rate; for plant injury at 125 g/ha: 125 g/ha application rate
In short: (§2)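 Plants grown in soil at 20/16° C day/night, 16 h light, 65% humidity; sprayed after 1 day (pre-emergence) or ~12 days (post-emergence) with formulated compound in 0.2% v/v X-77 adjuvant. Visual % phytotoxicity scored 20 DAA (pre) or 15 DAA (post).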

[3] = system: Brassica napus (BRSNN, rape); test: as above; conditions: 360 h; for plant injury at 30 g/ha: 30 g/ha application rate; for plant injury at 125 g/ha: 125 g/ha application rate
In short: as §2

[4] = system: Triticum aestivum (TRZAW, winter wheat); test: as above; conditions: 360 h; for plant injury at 30 g/ha: 30 g/ha application rate; for plant injury at 125 g/ha: 125 g/ha application rate
In short: as §2

[5] = system: Glycine max (GLXMA, soybean); test: Test 1B glasshouse assay for herbicidal activity, pre-emergence; conditions: 480 h, 20 DAA, read-out: percentage phytotoxicity GLXMA
Method: Seeds of a variety of monocotyledonous and dicotyledonous test plants are sown in standard soil in pots. The plants are cultivated for one day (for pre-emergence) or for about 12 days (range=10-13 days) (for post-emergence) under controlled conditions in a glasshouse (warm climate species at 24/18° C., cool climate species at 20/16° C., both at day/night; 16 hours light; 65% humidity).
An “instant formulation”, known as the “IF50”, containing 50 g/liter (i.e. 5% w/v) of the “technical” (i.e. unformulated) active ingredient is prepared by dissolving the active ingredient in a mixture of organic solvents and emulsifier, details of which are provided in the Table below. This IF50 is then mixed with a small, variable amount of acetone to aid dissolution, before addition of a 0.2% v/v aqueous solution of the adjuvant X-77 (which is a mixture of alkyl aryl polyoxyethylene glycols and free fatty acids in isopropanol, CAS Registry number 11097-66-8), as the aqueous diluent, to form an aqueous spray solution which contains a predetermined concentration of the active ingredient (which varies depending on the application rate of the active ingredient to the plants) and 0.2% v/v of the adjuvant X-77. This aqueous spray solution is then sprayed onto the plants, after one day's cultivation (for pre-emergence) or after about 12 days' cultivation (for post-emergence).
The test plants are then grown on, in a glasshouse (greenhouse) under controlled conditions (at either 24/18° C. or 20/16° C. (day/night) as mentioned above; 16 hours light; 65% humidity) and are watered twice daily. Either 15 days after application of the herbicide (15 DAA) (for post-emergence), or 20 days after application of the herbicide (20 DAA) (for pre-emergence), the test plants are evaluated visually, and an assessed percentage phytotoxicity score is given for each herbicidal application on each plant species (where 100%=total damage to plant; 0%=no damage to plant).
Warm climate crop plants: Glycine max (GLXMA, soybean).

[6] = system: Digitaria sanguinalis (DIGSA); test: as above; conditions: 480 h, 20 DAA, read-out: percentage phytotoxicity DIGSA
In short: as §1

[7] = system: SORVU (Sorghum bicolor (L.) Moench ssp. Bicolor, or Sorghum vulgare Pers.); test: as above; conditions: 480 h, 20 DAA, read-out: percentage phytotoxicity SORVU
In short: as §1

[8] = system: Setaria faberi (SETFA); test: as above; conditions: 480 h, 20 DAA, read-out: percentage phytotoxicity SETFA
In short: as §1

[9] = system: Amaranthus retroflexus (AMARE); test: Test 1A glasshouse assay for herbicidal activity, pre-emergence; conditions: 312 h, 250 g/ha, evaluated after 13 days, read-out: percentage phytotoxicity AMARE
In short: (§3)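 Test plants grew from seed in standard soil under controlled glasshouse conditions (24/16 °C, 14 h light, 65% humidity) and received an aqueous acetone (50:50) spray with 0.5% Tween 20, either one day after sowing or after eight days. Damage was rated visually as percent phytotoxicity 13 days later.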

[10] = system: Echinochloa crus-galli (ECHCG); test: as above; conditions: 312 h, 250 g/ha, evaluated after 13 days, read-out: percentage phytotoxicity ECHCG
In short: as §3

[11] = system: Alopecurus myosuroides (ALOMY); test: as above; conditions: 312 h, 250 g/ha, evaluated after 13 days, read-out: percentage phytotoxicity ALOMY
In short: as §3

[12] = system: Setaria faberi (SETFA); test: as above; conditions: 312 h, 250 g/ha, evaluated after 13 days, read-out: percentage phytotoxicity SETFA
In short: as §3

[13] = system: Glycine max (GLXMA, soybean); test: Test 1B glasshouse assay for herbicidal activity, post-emergence; conditions: 360 h; for plant injury at 30 g/ha: 30 g/ha application rate; for plant injury at 125 g/ha: 125 g/ha application rate
In short: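 Soybean sprayed 1 day after sowing (pre-emergence) or at about 12 days (post-emergence) with aqueous active ingredient plus 0.2% v/v X-77 adjuvant. Plants grown at 24/18 °C day/night, 16 h light, 65% humidity. Visual % phytotoxicity (100% = total damage) scored at 20 DAA pre-emergence, 15 DAA post-emergence.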

[14] = system: Abutilon theophasti Medik. (ABUTH); test: Test 1A glasshouse assay for herbicidal activity, post-emergence; conditions: 312 h, evaluated after 13 days, read-out: percentage phytotoxicity ABUTH
In short: as §3

[15] = system: Lolium perenne (LOLPE); test: Test 1B glasshouse assay for herbicidal activity, post-emergence; conditions: 360 h; for pest or weed control at 30 g/ha: 30 g/ha application rate; for pest or weed control at 125 g/ha: 125 g/ha application rate
In short: (§4)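 Herbicidal effect is expressed as visually assessed percentage plant damage at 15 DAA (post-emergence) and 20 DAA (pre-emergence). Application used an instant formulation of 50 g/L technical material, diluted into 0.2% v/v X-77, onto plants kept at 20/16 °C day/night.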

[16] = system: Avena fatua (AVEFA); test: as above; conditions: 360 h; for pest or weed control at 30 g/ha: 30 g/ha application rate; for pest or weed control at 125 g/ha: 125 g/ha application rate
In short: as §4

[17] = system: Alopecurus myosuroides (ALOMY); test: as above; conditions: 360 h; for pest or weed control at 30 g/ha: 30 g/ha application rate; for pest or weed control at 125 g/ha: 125 g/ha application rate
In short: as §4

CC#Cc1cc(C)c(C2C(=O)C3CCC(C3)C2=O)c(C)c1 (centres unmarked) [Compound A-5]
pest or weed control at 30 g/ha [1]: 90%
pest or weed control at 60 g/ha ([1]; 60 g/ha application rate): 100%
pest or weed control at 125 g/ha [1]: 100%
pest or weed control at 500 g/ha ([1]; 500 g/ha application rate): 100%
plant injury at 30 g/ha [2]: 40%
plant injury at 60 g/ha ([2]; 60 g/ha application rate): 40%
plant injury at 125 g/ha [2]: 30%
plant injury at 500 g/ha ([2]; 500 g/ha application rate): 30%
plant injury at 30 g/ha [3]: 70%
plant injury at 60 g/ha ([3]; 60 g/ha application rate): 70%
plant injury at 125 g/ha [3]: 80%
plant injury at 500 g/ha ([3]; 500 g/ha application rate): 80%
plant injury at 30 g/ha [4]: 30%
plant injury at 60 g/ha ([4]; 60 g/ha application rate): 30%
plant injury at 125 g/ha [4]: 70%
plant injury at 500 g/ha ([4]; 500 g/ha application rate): 80%
plant injury at 500 g/ha ([5]; 500 g/ha): 0%
pest or weed control at 500 g/ha ([6]; 500 g/ha): 100%
pest or weed control at 500 g/ha ([7]; 500 g/ha): 90%
pest or weed control at 500 g/ha ([8]; 500 g/ha): 90%
pest or weed control at 250 g/ha [9]: 0%
pest or weed control at 250 g/ha [10]: 100%
pest or weed control at 250 g/ha [11]: 100%
pest or weed control at 250 g/ha [12]: 90%
plant injury at 30 g/ha [13]: 10%
plant injury at 60 g/ha ([13]; 60 g/ha application rate): 20%
plant injury at 125 g/ha [13]: 30%
plant injury at 500 g/ha ([13]; 500 g/ha application rate): 40%
pest or weed control at 30 g/ha ([14]; 30 g/ha): 0%
pest or weed control at 250 g/ha [14]: 60%
pest or weed control at 30 g/ha [15]: 30%
pest or weed control at 60 g/ha ([15]; 60 g/ha application rate): 70%
pest or weed control at 125 g/ha [15]: 80%
pest or weed control at 500 g/ha ([15]; 500 g/ha application rate): 80%
pest or weed control at 30 g/ha [16]: 30%
pest or weed control at 60 g/ha ([16]; 60 g/ha application rate): 30%
pest or weed control at 125 g/ha [16]: 80%
pest or weed control at 500 g/ha ([16]; 500 g/ha application rate): 80%
pest or weed control at 30 g/ha [17]: 70%
pest or weed control at 60 g/ha ([17]; 60 g/ha application rate): 80%
pest or weed control at 125 g/ha [17]: 80%
pest or weed control at 500 g/ha ([17]; 500 g/ha application rate): 90%

CC#Cc1cc(C)c(C2=C(OC(=O)OC)CC(c3ccccn3)CC2=O)c(C)c1 (centres unmarked) [Compound A-14]
pest or weed control at 30 g/ha [1]: 70%
pest or weed control at 125 g/ha [1]: 100%
plant injury at 30 g/ha [2]: 30%
plant injury at 125 g/ha [2]: 40%
plant injury at 30 g/ha [3]: 60%
plant injury at 125 g/ha [3]: 70%
plant injury at 30 g/ha [4]: 60%
plant injury at 125 g/ha [4]: 80%
plant injury at 250 g/ha ([5]; 250 g/ha): 20%
pest or weed control at 250 g/ha ([6]; 250 g/ha): 100%
pest or weed control at 250 g/ha ([7]; 250 g/ha): 80%
pest or weed control at 250 g/ha ([8]; 250 g/ha): 90%
pest or weed control at 250 g/ha [9]: 70%
pest or weed control at 250 g/ha [10]: 100%
pest or weed control at 250 g/ha [11]: 100%
pest or weed control at 250 g/ha [12]: 100%
plant injury at 30 g/ha [13]: 40%
plant injury at 125 g/ha [13]: 70%
pest or weed control at 250 g/ha [14]: 80%
pest or weed control at 30 g/ha [15]: 70%
pest or weed control at 125 g/ha [15]: 80%
pest or weed control at 30 g/ha [16]: 20%
pest or weed control at 125 g/ha [16]: 60%
pest or weed control at 30 g/ha [17]: 70%
pest or weed control at 125 g/ha [17]: 80%

CC#Cc1cc(C)c(C2C(=O)C3CCC(C3)C2=O)c(OC)c1 (centres unmarked) [Compound A-10]
pest or weed control at 30 g/ha [1]: 90%
pest or weed control at 125 g/ha [1]: 100%
plant injury at 30 g/ha [2]: 20%
plant injury at 125 g/ha [2]: 20%
plant injury at 30 g/ha [3]: 40%
plant injury at 125 g/ha [3]: 60%
plant injury at 30 g/ha [4]: 60%
plant injury at 125 g/ha [4]: 80%
plant injury at 125 g/ha ([5]; 125 g/ha): 0%
pest or weed control at 125 g/ha ([6]; 125 g/ha): 90%
pest or weed control at 125 g/ha ([7]; 125 g/ha): 80%
pest or weed control at 125 g/ha ([8]; 125 g/ha): 80%
pest or weed control at 250 g/ha [9]: 0%
pest or weed control at 250 g/ha [10]: 100%
pest or weed control at 250 g/ha [11]: 100%
pest or weed control at 250 g/ha [12]: 100%
plant injury at 30 g/ha [13]: 10%
plant injury at 125 g/ha [13]: 20%
pest or weed control at 250 g/ha [14]: 80%
pest or weed control at 30 g/ha [15]: 30%
pest or weed control at 125 g/ha [15]: 80%
pest or weed control at 30 g/ha [16]: 20%
pest or weed control at 125 g/ha [16]: 40%
pest or weed control at 30 g/ha [17]: 60%
pest or weed control at 125 g/ha [17]: 100%
